Results reported in US20220251109A1, “OXAAZAQUINAZOLINE-7(8H)-KETONE COMPOUND, PREPARATION METHOD THEREFOR AND PHARMACEUTICAL APPLICATION THEREOF” (GENFLEET THERAPEUTICS (SHANGHAI) INC., priority 2019, published 2022).
pIC50: −log10 of the molar value.

Legend:
[1] = tested on: A549 cells (Kras G12S mutation); assay: Cell proliferation inhibition experiment, 3D model, CellTiter-Glo (A549); format: cell-based, human; conditions: A549, 3D sphere plate, 5 days, 2% FBS
Description: (§1) NCI-H358 was a human non-small cell lung cancer cell line with Kras G12C mutation, cultured in 10% FBS RPMI-1640 medium; A549 was a human lung adenocarcinoma cell line with Kras G12S mutation, cultured in 10% FBS F-12K medium. The cells in the logarithmic growth phase was taken, digested with trypsin EDTA, collected and counted, and H358 was adjusted to 1.8E4 cells/ml using 2% FBS RPMI-1640 medium, and A549 was adjusted to 8.9E3 cells/ml using 2% FBS F-12K medium; 800 (45 μl) H358 or 400 (45 μl) A549 cells were seeded in a 384-well sphere plate respectively, cultured overnight to establish a 3D cell model. DMSO was used to prepare 1000× compound 3.16-fold gradient concentration stock solution, and 2% FBS medium was used to dilute 100-fold to 10× compound stock solution. On the second day after cell seeding, 5 μl 10× compound stock solution was added to each cell culture well, the final concentration was 1×, and DMSO content was 0.1%. DMSO was used as the experimental control (control) and 2% FBS medium as the blank control (blank). After the compound and cells were added and cultured for 5 days, 25 μl CellTiter-Glo working solution was added to each well, mixed at 400 rpm and incubated for 30 minutes. After 30 minutes at room temperature, 40 μl of the mixture was transferred to a 384-well plate with a non-transparent white bottom, the luminescence chemiluminescence value was read, and the cells proliferation inhibition rate IR (%)=(RLU control-RLU compound)/(RLU control-RLU blank)×100% was calculated, Prism 6 four-parameter method was used to fit the compound's gradient dilution concentration and the corresponding cell proliferation inhibition rate, and the IC50 value was calculate.

[2] = tested on: NCI-H358 cells (Kras G12C mutation); assay: Cell proliferation inhibition experiment, 3D model, CellTiter-Glo (NCI-H358); format: cell-based, human; conditions: NCI-H358, 3D sphere plate, 5 days, 2% FBS
Description: as §1

Structure (SMILES) | pIC50 [1] | pIC50 [2] | pIC50 ([1]; Homo sapiens, A549, 120 h) | pIC50 ([2]; Homo sapiens, NCI-H358, 120 h)
C=CC(=O)N1CCN2c3nc(=O)n(-c4c(C)ccnc4C(C)C)c4cc(-c5c(C)ccc6[nH]ncc56)cc(c34)OC[C@@H]2C1 (atropisomer, axis not shown) [Compound Z19-1] | 5.16 | 6.49 |  | 
C=CC(=O)N1CCN2c3nc(=O)n(-c4c(C)ccnc4C(C)C)c4nc(-c5c(O)cccc5F)cc(c34)OC[C@H]2C1 (atropisomer, axis not shown) [Compound Z25-2] | < 5.00 | 6.55 |  | 
C=CC(=O)N1CCN2c3nc(=O)n(-c4c(C)ccnc4C(C)C)c4nc(-c5ccc(F)cc5F)c(Cl)c(c34)OC[C@@H]2C1 (atropisomer, axis not shown) [Compound Z49-2] | < 5.00 | 6.95 |  | 
C=CC(=O)N1CCN2c3nc(=O)n(-c4c(C)ccnc4C(C)C)c4nc(-c5cccc(C(F)(F)F)c5F)c(Cl)c(c34)OC[C@@H]2C1 (atropisomer, axis not shown) [Compound Z57-1] | < 5.00 | 6.95 |  | 
C=CC(=O)N1CCN2c3nc(=O)n(-c4c(C)ccnc4C(C)C)c4nc(-c5c(O)cccc5F)c(Cl)c(c34)OC[C@H]2C1 (single isomer, unassigned) [Compound Z23-2] | < 5.00 | 7.68 |  | 
C=CC(=O)N1CCN2c3nc(=O)n(-c4c(C)ccnc4C(C)C)c4nc(-c5c(O)cccc5F)cc(c34)OC[C@H]2C1 (single isomer, unassigned) [Compound Z25-1] | < 5.00 | 7.34 |  | 
C=CC(=O)N1CCN2c3nc(=O)n(-c4c(C)ccnc4C(C)C)c4cc(-c5c(O)cccc5F)c(Cl)c(c34)OC[C@H]2C1 (single isomer, unassigned) [Compound Z29-3] | < 5.00 | 6.78 |  | 
C=CC(=O)N1CCN2c3nc(=O)n(-c4c(C)ncnc4C(C)C)c4cc(-c5c(C)ccc6[nH]ncc56)c(Cl)c(c34)OC[C@@H]2C1 (single isomer, unassigned) [Compound Z45-1] |  | 8.52 | < 5.00 | 
C=CC(=O)N1CCN2c3nc(=O)n(-c4c(C)ncnc4C(C)C)c4cc(-c5c(C)ccc6[nH]ncc56)c(Cl)c(c34)OC[C@@H]2C1 (single isomer, unassigned) [Compound Z45-4] | < 5.00 | 7.19 |  | 
C=CC(=O)N1CCN2c3nc(=O)n(-c4c(C)ccnc4C(C)C)c4nc(-c5ccccc5F)c(Cl)c(c34)OC[C@@H]2C1 (single isomer, unassigned) [Compound Z46-1] |  | 7.05 | 5.08 | 
[2H]C([2H])([2H])Oc1cccc(F)c1-c1nc2c3c(nc(=O)n2-c2c(C)ccnc2C(C)C)N2CCN(C(=O)C=C)C[C@@H]2COc3c1F (single isomer, unassigned) [Compound Z100-2] | < 5.00 | 7.51 |  | 
C=CC(=O)N1CCN2c3nc(=O)n(-c4c(C#N)cnn4C(C)(C)C)c4nc(-c5ccccc5F)c(Cl)c(c34)OC[C@H]2C1 (single isomer, unassigned) [Compound Z109-2] | 5.01 | 6.97 |  | 
C=CC(=O)N1CCN2c3nc(=O)n(-c4ccccc4C(C)C)c4cc(-c5c(C)ccc6[nH]ncc56)c(Cl)c(c34)OCC2C1 (stereo not drawn) [Compound Z1] |  |  | 5.13 | 8.70
C=CC(=O)N1CCN2c3nc(=O)n(-c4c(C)ccnc4C(C)C)c4cc(-c5c(O)cccc5F)cc(c34)OC[C@@H]2C1 [Compound Z15, (S)-2-acryloyl-10-(2-fluoro-6-hydroxyphenyl)-8-(2-isopropyl-4-methylpyridin-3-yl)-1,2,3,4,13,13a-hexahydropyrazino[2′,1′:3,4][1,4]oxazepine[5,6,7-de]quinazolin-7 (8H)-one] | < 5.00 | 7.44 |  | 
C=CC(=O)N1CCN2c3nc(=O)n(-c4c(C)ccnc4C(C)C)c4cc(-c5c(C)ccc6[nH]ncc56)cc(c34)OC[C@H]2C1 [Compound Z18, (R)-2-acryloyl-8-(2-isopropyl-4-methylpyridin-3-yl)-10-(5-methyl-1H-indazol-4-yl)-1,2,3,4,13,13a-hexahydropyrazino[2′,1′:3,4][1,4]oxazepine[5,6,7-de]quinazolin-7 (8H)-one] |  |  | 4.91 | 6.97
C=CC(=O)N1CCN2c3nc(=O)n(-c4c(C)ccnc4C(C)C)c4cc(-c5c(C)ccc6[nH]ncc56)cc(c34)OC[C@@H]2C1 [Compound Z19, (S)-2-acryloyl-8-(2-isopropyl-4-methylpyridin-3-yl)-10-(5-methyl-1H-indazol-4-yl)-1,2,3,4,13,13a-hexahydropyrazino[2′,1′:3,4][1,4]oxazepine[5,6,7-de]quinazolin-7 (8H)-one] | 4.33 | 7.17 |  | 
C=CC(=O)N1CCN2c3nc(=O)n(C4CC4)c4cc(-c5c(C)ccc6[nH]ncc56)cc(c34)OCCC2C1 (stereo not drawn) [Compound Z21, 2-acryloyl-8-cyclopropyl-10-(5-methyl-1H-indazol-4-yl)-1,3,4,13,14,14a-hexa hydro-2H-pyrazino[1′,2′:5,6][1,5]oxazolidine[4,3,2-de]quinazolin-7 (8H)-one] |  |  | < 5.00 | 6.55

Structure (SMILES) | pIC50 [1] | pIC50 [2] | pIC50 ([1]; Homo sapiens, A549, 120 h) | pIC50 ([2]; Homo sapiens, NCI-H358, 120 h)
C=CC(=O)N1CCN2c3nc(=O)n(-c4c(C)ccnc4C(C)C)c4cc(-c5c(C)ccc6[nH]ncc56)cc(c34)OCCC2C1 (stereo not drawn) [Compound Z22] |  |  | < 5.00 | 6.93
C=CC(=O)N1CCN2c3nc(=O)n(-c4c(C)ccnc4C(C)C)c4nc(-c5c(O)cccc5F)c(Cl)c(c34)OC[C@H]2C1 [Compound Z23, (5aR)-7-acryloyl-3-chloro-2-(2-fluoro-6-hydroxyphenyl)-12-(2-isopropyl-4-methylpyridin-3-yl)-5,5a,6,7,8,9-hexahydro-4-oxo-1,7,9a,10,12-pentazabenzo[4,5] cyclohepta[1,2,3-de]naphthalen-11 (12H)-one] |  |  | < 5.00 | 8.70
C=CC(=O)N1CCN2c3nc(=O)n(-c4c(C)ccnc4C(C)C)c4nc(-c5c(O)cccc5F)cc(c34)OC[C@H]2C1 [Compound Z25, (R)-7-acryloyl-2-(2-fluoro-6-hydroxyphenyl)-12-(2-isopropyl-4-methylpyridin-3-yl)-5,5a,6,7,8,9-hexahydro-4-oxo-1,7,9a,10,12-pentazabenzo[4,5]cyclohepta[1,2,3-de]naphthalen-11 (12H)-one] | 4.62 | 7.03 |  | 
C=CC(=O)N1CCN2c3nc(=O)n(C4CC4)c4cc(-c5c(O)cccc5F)cc(c34)OCCC2C1 (stereo not drawn) [Compound Z28] |  |  | < 5.00 | 6.74
C=CC(=O)N1CCN2c3nc(=O)n(CC(C)C)c4cc(-c5c(O)cccc5F)c(Cl)c(c34)OC[C@@H]2C1 [Compound Z32] |  |  | 4.63 | 6.51
C=CC(=O)N1CCN2c3nc(=O)n(-c4c(C)ccnc4C(C)C)c4cc(-c5ncccc5F)c(Cl)c(c34)OC[C@@H]2C1 [Compound Z35] |  |  | < 5.00 | 6.79
C=CC(=O)N1CCN2c3nc(=O)n(CC4CC4)c4cc(-c5c(O)cccc5F)c(Cl)c(c34)OC[C@@H]2C1 [Compound Z37-2] |  |  | 4.53 | 6.56
C=CC(=O)N1CCN2c3nc(=O)n(-c4c(C)ccnc4C(C)C)c4nc(-c5cccc(F)c5)c(Cl)c(c34)OC[C@@H]2C1 [Compound Z48] |  |  | < 5.00 | 7.66
C=CC(=O)N1CCN2c3nc(=O)n(-c4c(C)ccnc4C(C)C)c4nc(-c5ccc(F)cc5)c(Cl)c(c34)OC[C@@H]2C1 [Compound Z50] |  |  | < 5.00 | 7.30
C=CC(=O)N1CCN2c3nc(=O)n(-c4c(C)ccnc4C(C)C)c4nc(-c5cc(F)cc(F)c5O)c(Cl)c(c34)OC[C@@H]2C1 [Compound Z54] |  |  | < 5.00 | 7.18
C=CC(=O)N1CCN2c3nc(=O)n(-c4c(C)ccnc4C(C)C)c4nc(-c5c(F)cc(F)cc5F)c(Cl)c(c34)OC[C@@H]2C1 [Compound Z56] |  |  | < 5.00 | 7.96
C=CC(=O)N1CCN2c3nc(=O)n(-c4c(C)ccnc4C(C)C)c4nc(-c5ccccc5C(C)C)c(Cl)c(c34)OC[C@@H]2C1 [Compound Z62] |  |  | < 5.00 | 8.22
C=CC(=O)N1CCN2c3nc(=O)n(-c4c(C)ccnc4C(C)C)c4nc(-c5ccncc5F)c(Cl)c(c34)OC[C@@H]2C1 [Compound Z69] |  |  | < 5.00 | 7.02
C=CC(=O)N1CCN2c3nc(=O)n(-c4c(C)ccnc4C(C)C)c4nc(-c5c(F)cccc5C(F)(F)F)c(Cl)c(c34)OC[C@@H]2C1 [Compound Z70] |  |  | < 5.00 | 7.38
C=CC(=O)N1CCN2c3nc(=O)n(-c4c(C)ccnc4C(C)C)c4nc(-c5cccnc5C)c(Cl)c(c34)OC[C@@H]2C1 [Compound Z78] |  |  | < 5.00 | 6.60
C=CC(C)N1CCN2c3nc(=O)n(-c4c(C)ccnc4C(C)C)c4nc(-c5cnccc5C)c(Cl)c(c34)OC[C@@H]2C1 (stereo partly drawn) [Compound Z81] |  |  | < 5.00 | 6.69
